In patent US12583870B2, “Azaheteroaryl compound and application thereof” (SHANGHAI BLUERAY BIOPHARMA CO., LTD., priority 2019, dated 2026) one finds IC50 data, which are given here for 22 molecules.

Test [1] deals with T1, EED protein (His6-tagged full-length) binding to H3K27me3 polypeptide (Homo sapiens, UniProt O75530).
T1 construct: His6-tagged full-length EED protein (441 amino acids)
As to the kind of experiment: AlphaScreen evaluation of blocking the binding of EED to H3K27Me3. The note with it: EED 60 nM, biotinylated H3K27me3 75 nM, 30 minutes incubation. The procedure: Firstly, compound solutions of different concentration gradients were prepared. Compound powder was dissolved in DMSO to prepare a mother liquor. 1.5 μl of the mother liquor of the compound was taken and added into 198.5 μl of a reaction buffer (25 mM HEPES (pH 8.0), 50 mM NaCl, 0.015% Tween 20, 0.5% BSA). The mixture was mixed uniformly. Then a 3-fold series dilution was carried out with the above-mentioned buffer containing 0.75% DMSO. 9 different test concentrations were provided for one same compound. 5 μL of compounds of different concentration gradients were taken and added into the ProxiPlate-384 Plus, White detection plate (PerkinElmer, 6008280) and two replicates in parallel were provided for each concentration gradient.
Secondly, a reaction for blocking the binding was carried out. The above-mentioned buffer was used to dilute His6-tagged full-length EED protein (441 amino acids) to 60 nM and biotinylated polypeptide fragment H3K27me3 (amino acids at positions 19-33) (Biotinylated-H3K27me3) to 75 nM. 5 μl of the polypeptide fragment at the concentration of 75 nM and 5 µl of the protein at the concentration of 60 nM were transferred to the detection wells containing the compound, respectively. The detection plate was sealed with the film and incubation was carried out at room temperature for 30 minutes.
Finally, the detection was carried out with the AlphaScreen method. Prior use, nickel chelate receptor beads and streptavidin donor beads (at the ratio of 1:1, Perkin Elmer, product number 6760619M) were mixed with the above-mentioned reaction buffer. Then 5 μl of the above-mentioned pre-mixed detection solution was added to each of the detection wells. The donor beads and receptor beads were both at a final concentration of 5 μg/mL. The detection plate was covered and sealed with tinfoil and placed in the dark at room temperature for 1 hour. The signal was read using the AlphaScreen detector on the Spectra max i3. AlphaScreen signals were standardlized based on the readings obtained from positive controls (maximum signal controls) and negative controls (minimum signal controls) to give the inhibition rates for compounds at different concentrations, and afterwards non-linear regression analysis was carried out using GraphPad Prism 5, inhibition curves were made based on the Dose-Response equation of Y=Bottom+(Top−Bottom)/(1+10^((Log IC50−X)*HillSlope)) and the IC50 values of each compound were obtained. […]
On the technique in general: In Alpha technology, singlet oxygen from a donor bead excites a nearby acceptor bead.

Test [2] deals with trimethylation level of histone H3K27 in G401 cells. As to the kind of experiment: ELISA (H3K27 trimethylation) analysis in G401 cells. It is filed as cell-based. The note with it: Homo sapiens, G-401, 72 hours, H3K27me3 standardized to H3. The method, boiled down: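 Cells exposed 72 h to 10-point 3-fold dilutions, top 10 μM, 0.5% final DMSO. Acid-extracted histones assayed by ELISA (ECL) for H3K27me3, normalized to total H3 and to DMSO control; IC50 from dose-response fit.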
A general note: ELISA stands for enzyme-linked immunosorbent assay.

A further test deals with KARPAS-422 cells. As to the kind of experiment: Cell proliferation analysis, KARPAS-422, 13 days, CellTiter-Glo. It is filed as cell-based. The note with it: Homo sapiens, 312 h. The method, boiled down: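 KARPAS-422 cells were treated with PRC2 inhibitors over 9 three-fold dilutions from 10 μM top (0.5% DMSO, duplicates) in RPMI-1640 with 15% FBS at 37 °C. Every 3–4 days cells were counted and reseeded at 1×10^4/well with fresh compound. Viability was read by CellTiter-Glo luminescence on day 13.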
Background: ATP-based viability assays read luminescence as a measure of living cells.

T1 sequence (O75530 whole entry): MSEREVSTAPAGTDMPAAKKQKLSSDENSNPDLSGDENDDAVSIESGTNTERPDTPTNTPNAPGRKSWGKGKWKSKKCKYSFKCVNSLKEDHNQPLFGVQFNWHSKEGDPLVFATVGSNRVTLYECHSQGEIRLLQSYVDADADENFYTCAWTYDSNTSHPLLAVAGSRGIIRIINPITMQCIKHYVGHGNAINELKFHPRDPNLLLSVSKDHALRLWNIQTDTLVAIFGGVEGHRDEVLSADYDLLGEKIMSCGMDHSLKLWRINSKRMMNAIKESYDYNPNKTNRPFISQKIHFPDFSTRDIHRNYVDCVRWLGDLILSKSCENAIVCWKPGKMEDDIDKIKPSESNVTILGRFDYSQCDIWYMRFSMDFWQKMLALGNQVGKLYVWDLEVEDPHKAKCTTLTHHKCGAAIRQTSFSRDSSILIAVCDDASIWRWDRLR

The IC50 is the concentration at which inhibition is half-maximal. Read a high IC50 as weaker potency in that assay. As for `Fc1ccc2c(c1CNc1ncc(-c3cc(Cl)cn4cc(C(F)(F)F)nc34)c3nncn13)CCO2`, the IC50 in test [1] is 0.0096 µM; in test [2], 0.089 µM.
`Fc1ccc2c(c1CNc1ncc(-c3cccn4c(F)cnc34)c3nncn13)CCO2`: the IC50 stood at 0.0092 µM in test [1] and 0.0035 µM in test [2].
The corresponding values for `O=S1(=O)C=c2cc(-c3cnc(NCc4c(F)ccc5c4[C@H]4C[C@H]4O5)n4cnnc34)ccc2=C1F` [1-fluoro-5-(5-((((1aR,6bR)-5-fluoro-1a,6b-dihydro-1H-cyclopropa[b]benzofuran-6-yl)methyl)amino)-[1,2,4]triazolo[4,3-c]pyrimidin-8-yl)benzo[c]thiophene 2,2-dioxide] are 0.186 µM and 0.075 µM.
The corresponding values for `CC1=C(Cl)c2cc(-c3cnc(NCc4c(F)ccc5c4[C@H]4C[C@H]4O5)n4cnnc34)ccc2S1(=O)=O` [3-chloro-5-(5-((((1aR,6bR)-5-fluoro-1a,6b-dihydro-1H-cyclopropa[b]benzofuran-6-yl)methyl)amino)-[1,2,4]triazolo[4,3-c]pyrimidin-8-yl)-2-methylbenzo[b]thiophene 1,1-dioxide] are 0.011 µM and 0.127 µM.
For `CC1=Cc2cc(-c3cnc(NCc4c(F)ccc5c4CCO5)n4cnnc34)cc(Cl)c2S1(=O)=O` [7-chloro-5-(5-(((5-fluoro-2,3-dihydrobenzofuran-4-yl)methyl)amino)-[1,2,4]triazolo[4,3-c]pyrimidin-8-yl)-2-methylbenzo[b]thiophene 1,1-dioxide] the same measures were 0.0039 µM and 0.026 µM.
Turning to `Fc1ccc2c(c1CNc1ncc(C3=CC=CN4CCN=C34)c3nncn13)CCO2` [8-(2,3-dihydroimidazo[1,2-a]pyridin-8-yl)-N-((5-fluoro-2,3-dihydrobenzofuran-4-yl)methyl)-[1,2,4]triazolo[4,3-c]pyrimidin-5-amine], in test [1], the IC50 was found to be 0.0052 µM.
For the molecule `Cc1ccc(-c2cnc(NCc3c(F)ccc4c3CCO4)n3cnnc23)c2ncc(C(=O)O)n12` [8-(5-(((5-fluoro-2,3-dihydrobenzofuran-4-yl)methyl)amino)-[1,2,4]triazolo[4,3-c]pyrimidin-8-yl)-5-methylimidazo[1,2-a]pyridine-3-carboxylic acid], the IC50 turned out to be 0.0054 µM in test [1] and 0.004 µM in test [2].
The corresponding values for `O=C(O)c1cnc2c(-c3cnc(NCc4c(F)ccc5c4CCO5)n4cnnc34)cccn12` [8-(5-(((5-fluoro-2,3-dihydrobenzofuran-4-yl)methyl)amino)-[1,2,4]triazolo[4,3-c]pyrimidin-8-yl)imidazo[1,2-a]pyridine-3-carboxylic acid] are 0.0051 µM and 0.329 µM.
The corresponding values for `CCOC(=O)c1c(O)nc2c(-c3cnc(NCc4c(F)ccc5c4CCO5)n4cnnc34)cc(F)cn12` [Ethyl 6-fluoro-8-(5-(((5-fluoro-2,3-dihydrobenzofuran-4-yl)methyl)amino)-[1,2,4]triazolo[4,3-c]pyrimidin-8-yl)-2-hydroxyimidazo[1,2-a]pyridine-3-carboxylate] are 0.0912 µM and 0.091 µM.
In the case of `CCOC(=O)c1c(C)nc2c(-c3cnc(NCc4c(F)ccc5c4CCO5)n4cnnc34)cc(F)cn12` [Ethyl 6-fluoro-8-(5-(((5-fluoro-2,3-dihydrobenzofuran-4-yl)methyl)amino)-[1,2,4]triazolo[4,3-c]pyrimidin-8-yl)-2-methylimidazo[1,2-a]pyridine-3-carboxylate], the IC50 was found to be 0.0452 µM in test [1] and 0.087 µM in test [2].
For `CCOC(=O)c1cnc2c(-c3cnc(NCc4c(F)ccc5c4CCO5)n4cnnc34)cc(F)cn12` [Ethyl 6-fluoro-8-(5-(((5-fluoro-2,3-dihydrobenzofuran-4-yl)methyl)amino)-[1,2,4]triazolo[4,3-c]pyrimidin-8-yl)imidazo[1,2-a]pyridine-3-carboxylate] the same measures were 0.0221 µM and 0.047 µM.
Take `COc1ccc(-c2cnc(NCc3c(F)ccc4c3CCO4)n3cnnc23)c2ncnn12` [N-((5-fluoro-2,3-dihydrobenzofuran-4-yl)methyl)-8-(5-methoxy-[1,2,4]triazolo[1,5-a]pyridin-8-yl)-[1,2,4]triazolo[4,3-c]pyrimidin-5-amine]: the IC50 in the test with KARPAS-422 cells stood at 0.0011 µM; in test [2], 0.0032 µM.
With `Cc1ccc(-c2cnc(NCc3c(F)ccc4c3CCO4)n3cnnc23)c2ncnn12` [N-((5-fluoro-2,3-dihydrobenzofuran-4-yl)methyl)-8-(5-methyl-[1,2,4]triazolo[1,5-a]pyridin-8-yl)-[1,2,4]triazolo[4,3-c]pyrimidin-5-amine], the IC50 is 0.0018 µM with KARPAS-422 cells and 0.0017 µM in test [2].
The corresponding values for `Cc1ncc(-c2cnc(NCc3c(F)ccc4c3CCO4)n3cnnc23)c2ncnn12` [N-((5-fluoro-2,3-dihydrobenzofuran-4-yl)methyl)-8-(5-methyl-[1,2,4]triazolo[1,5-c]pyrimidin-8-yl)-[1,2,4]triazolo[4,3-c]pyrimidin-5-amine] are 0.0025 µM and 0.0045 µM.
In the case of `Cc1ccc(-c2cnc(NCc3c(F)ccc4c3CCO4)n3cnnc23)c2nncn12` [N-((5-fluoro-2,3-dihydrobenzofuran-4-yl)methyl)-8-(5-methyl-[1,2,4]triazolo[4,3-a]pyridin-8-yl)-[1,2,4]triazolo[4,3-c]pyrimidin-5-amine], the IC50 (with KARPAS-422 cells; in test [2]) was 0.0002 µM each time.
For `Cc1ccc(-c2cnc(NCc3c(F)ccc4c3CCO4)n3cnnc23)c2nnnn12` [N-((5-fluoro-2,3-dihydrobenzofuran-4-yl)methyl)-8-(5-methyltetrazolo[1,5-a]pyridin-8-yl)-[1,2,4]triazolo[4,3-c]pyrimidin-5-amine], the IC50 turned out to be 0.0025 µM in the test with KARPAS-422 cells and 0.0024 µM in test [2].
The corresponding values for `Fc1ccc2c(c1CNc1ncc(-c3ccc(N4CCOCC4)n4ncnc34)c3nncn13)CCO2` [N-((5-fluoro-2,3-dihydrobenzofuran-4-yl)methyl)-8-(5-morpholino-[1,2,4]triazolo[1,5-a]pyridin-8-yl)-[1,2,4]triazolo[4,3-c]pyrimidin-5-amine] are 0.0007 µM and 0.0011 µM.
Consider `Cc1c(F)cc(-c2cnc(NCc3c(F)ccc4c3CCO4)n3cnnc23)c2ncnn12` [N-((5-fluoro-2,3-dihydrobenzofuran-4-yl)methyl)-8-(6-fluoro-5-methyl-[1,2,4]triazolo[1,5-a]pyridin-8-yl)-[1,2,4]triazolo[4,3-c]pyrimidin-5-amine], for which the values for the IC50 (in the test on KARPAS-422 cells; in test [2]) were 0.0047 µM and 0.0036 µM, respectively.
As to `COc1cc(-c2cnc(NCc3c(F)ccc4c3CCO4)n3cnnc23)c2ncnn2c1` [N-((5-fluoro-2,3-dihydrobenzofuran-4-yl)methyl)-8-(6-methoxy-[1,2,4]triazolo[1,5-a]pyridin-8-yl)-[1,2,4]triazolo[4,3-c]pyrimidin-5-amine], the IC50 turned out to be 0.0017 µM with KARPAS-422 cells and 0.0012 µM in test [2].
For `CC(=O)NCc1cnc2c(-c3cnc(NCc4c(F)ccc5c4CCO5)n4cnnc34)ccc(C)n12` [N-((8-(5-(((5-fluoro-2,3-dihydrobenzofuran-4-yl)methyl)amino)-[1,2,4]triazolo[4,3-c]pyrimidin-8-yl)-5-methylimidazo[1,2-a]pyridin-3-yl)methyl)acetamide] the same measures were 0.0032 µM and 0.0024 µM.
The corresponding values for `Cc1ccc(-c2cnc(NCc3c(F)ccc4c3[C@H]3C[C@H]3O4)n3cnnc23)c2ncnn12` [N-(((1aR,6bR)-5-fluoro-1a,6b-dihydro-1H-cyclopropa[b]benzofuran-6-yl)methyl)-8-(5-methyl-[1,2,4]triazolo[1,5-a]pyridin-8-yl)-[1,2,4]triazolo[4,3-c]pyrimidin-5-amine] are 0.0044 µM and 0.0024 µM.
For `Cc1ccc(-c2cnc(NCc3c(F)ccc4c3[C@H]3C[C@H]3O4)n3cnnc23)c2nccn12` [N-(((1aR,6bR)-5-fluoro-1a,6b-dihydro-1H-cyclopropa[b]benzofuran-6-yl)methyl)-8-(5-methylimidazo[1,2-a]pyridin-8-yl)-[1,2,4]triazolo[4,3-c]pyrimidin-5-amine] the same measures were 0.0009 µM and 0.0012 µM.
